Source: EPA's ToxRefDB 2

What was measured:
rat [1] = details: Neurotoxicity screening battery, wistar, Oral, Feed, dose end: 90 day, group: cannot be grouped
rabbit [2] = details: Prenatal developmental toxicity study, himalayan, Oral, Gavage/Intubation, dose end: 19 GD
rat [3] = details: Combined chronic toxicity/carcinogenicity, sprague dawley, Oral, Feed, dose end: 115 week
dog [4] = details: Chronic toxicity, beagle, Oral, Feed, dose end: 53 week
rabbit [5] = details: Prenatal developmental toxicity study, himalayan, Oral, Gavage/Intubation, dose end: 18 GD
rat [6] = details: Subchronic oral toxicity in rodents, sprague dawley, Feed, dose end: 13 week
rat [7] = details: Subchronic oral toxicity in rodents, sprague dawley, Feed, dose end: 13 week, group: systemic, systemic / in life observation / body weight / body weight + systemic / in life observation / body weight / body weight gain + systemic / …
dog [8] = details: Subchronic oral toxicity in nonrodent, beagle, Capsule, dose end: 90 day, group: systemic
dog [9] = details: Chronic toxicity; beagle; Oral; Capsule; dose end: 12 month; group: systemic; systemic / pathology microscopic / urinary bladder / calculus + systemic / pathology microscopic / urinary bladder / crystals + systemic / …
rat [10] = details: Combined chronic toxicity/carcinogenicity; sprague dawley; Oral; Feed; dose end: 22 month; group: systemic; systemic / clinical chemistry / albumin / albumin + systemic / pathology microscopic / heart / mineralization + systemic / pathology …
mouse = details: Carcinogenicity; cd1; Oral; Feed; dose end: 18 month; group: systemic; systemic / pathology gross / urinary bladder / calculus + systemic / pathology microscopic / urinary bladder / hyperplasia + systemic / …
[11] = group: developmental, developmental / developmental malformation / bone / cranioschisis + developmental / developmental malformation / bone / exencephaly + …
[12] = group: maternal, systemic / in life observation / clinical signs / swelling
[13] = group: cholinesterase, cholinesterase / cholinesterase / cholinesterase / plasma cholinesterase (che) + cholinesterase / cholinesterase / cholinesterase / brain (…
[14] = group: systemic, systemic / pathology microscopic / liver / eosinophilic focus
[15] = group: cholinesterase, cholinesterase / cholinesterase / cholinesterase / cholinesterase (che)
[16] = group: systemic, systemic / clinical chemistry / alkaline phosphatase (alp/alk) / alkaline phosphatase (alp/alk)
[17] = group: maternal, reproductive / reproductive performance / aborted / aborted + reproductive / reproductive performance / resorptions / resorptions + systemic…
[18] = group: cholinesterase, cholinesterase / cholinesterase / cholinesterase / erythrocyte cholinesterase (che)
[19] = group: systemic, systemic / organ weight / liver / relative to body weight + systemic / pathology microscopic / liver / necrosis
[20] = systemic / pathology microscopic / urinary bladder / calculus + systemic / pathology microscopic / urinary bladder / hemorrhage + systemic…

## CC(Cc1ccc(C(C)(C)C)cc1)CN1C[C@@H](C)O[C@@H](C)C1 (stereo partly drawn) [(2R,6S)-Fenpropimorph]
Rat [1]; cholinesterase / cholinesterase / cholinesterase / cholinesterase (che)
  LEL: 0.8 mg/kg/day
Rat [1]; cholinesterase / cholinesterase / cholinesterase / cholinesterase (che) + systemic / clinical chemistry / alanine aminotransferase (alt/sgpt…
  NEL: 0.1 mg/kg/day
Rat [1]; systemic / organ weight / liver / absolute + systemic / organ weight / liver / relative to body weight
  LOAEL: 7.1 mg/kg/day
Rat [1]; systemic / organ weight / liver / absolute + systemic / organ weight / liver / relative to body weight + cholinesterase / cholinesterase / …
  NOAEL: 0.7 mg/kg/day
Rabbit [2]; [11]
  LEL: 30 mg/kg/day
  LOAEL: 30 mg/kg/day
  NEL: 15 mg/kg/day
  NOAEL: 15 mg/kg/day
Rabbit [2]; [12]
  LEL: 30 mg/kg/day
  LOAEL: 30 mg/kg/day
  NEL: 15 mg/kg/day
  NOAEL: 15 mg/kg/day
Rat [3]; [13]
  LEL: 0.2 mg/kg/day
  LOAEL: > 8.8 mg/kg/day
  NEL: < 0.2 mg/kg/day
  NOAEL: ≥ 8.8 mg/kg/day
Rat [3]; [14]
  LEL: 0.2 mg/kg/day
  NEL: < 0.2 mg/kg/day
Rat [3]; group: systemic, systemic / pathology microscopic / liver / hypertrophy + systemic / organ weight / liver / relative to body weight
  NOAEL: 1.7 mg/kg/day
Rat [3]; group: systemic, systemic / pathology microscopic / liver / hypertrophy + systemic / pathology microscopic / liver / eosinophilic focus + systemic / …
  LOAEL: 8.8 mg/kg/day
Dog [4]; [15]
  LEL: 12.3 mg/kg/day
  LOAEL: 12.3 mg/kg/day
  NEL: 3.2 mg/kg/day
  NOAEL: 3.2 mg/kg/day
Dog [4]; [16]
  LEL: 12.3 mg/kg/day
  LOAEL: 12.3 mg/kg/day
  NEL: 3.2 mg/kg/day
  NOAEL: 3.2 mg/kg/day
Rabbit [5]; group: developmental, developmental / developmental malformation / general / [other]
  LOAEL: 36 mg/kg/day
Rabbit [5]; group: developmental, developmental / developmental malformation / general / [other] + developmental / developmental malformation / bone / misshapen
  LEL: 36 mg/kg/day
Rabbit [5]; [17]
  LEL: 36 mg/kg/day
  LOAEL: 36 mg/kg/day
Rat [6]; [15]
  LOAEL: > 1.54 mg/kg/day
  NOAEL: ≥ 1.54 mg/kg/day
Rat [6]; [18]
  LEL: 0.465 mg/kg/day
  NEL: < 0.465 mg/kg/day
Rat [6]; [19]
  LEL: 0.768 mg/kg/day
  LOAEL: 1.54 mg/kg/day
  NEL: 0.382 mg/kg/day
  NOAEL: 0.768 mg/kg/day

## CCS(=O)(=O)c1nc2ccccn2c1S(=O)(=O)NC(=O)Nc1nc(OC)cc(OC)n1 [Sulfosulfuron]
Rat [7]
  LEL: 1280 mg/kg/day
  LOAEL: 1280 mg/kg/day
  NEL: 370 mg/kg/day
  NOAEL: 370 mg/kg/day
Dog [8]; systemic / pathology microscopic / urinary bladder / calculus
  LEL: 100 mg/kg/day
Dog [8]; [20]
  NEL: 30 mg/kg/day
  NOAEL: 100 mg/kg/day
Dog [8]; systemic / urinalysis / sediment microscopic / crystalluria
  LOAEL: 300 mg/kg/day
Dog [9]
  LEL: 500 mg/kg/day
  LOAEL: 500 mg/kg/day
  NEL: 100 mg/kg/day
  NOAEL: 100 mg/kg/day
Rat [10]
  LEL: 244 mg/kg/day
  LOAEL: 244 mg/kg/day
  NEL: 24.4 mg/kg/day
  NOAEL: 24.4 mg/kg/day
mouse
  LEL: 394 mg/kg/day
  LOAEL: 394 mg/kg/day
  NEL: 93.4 mg/kg/day
  NOAEL: 93.4 mg/kg/day
